Results taken from the supplement of paper PMC4314810.
± gives the standard deviation of the averaged measurements.

Tested on: MCF7
Assay: HRG-induced Akt activation (dPAkt = log2 pAkt/Akt HRG-stimulated minus log2 pAkt/Akt basal) (log2 ratio difference); higher = stronger HRG-induced Akt(T308) phosphorylation
Settings: miRNA mimic concentration 10 nM; time after transfection 72 h; heregulin 10 ng/ml; stimulation time 1 h
How it was run: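 Akt activation induced by heregulin was calculated as the difference between stimulated and unstimulated log ratios of phospho-Akt to total Akt, then averaged across replicates. The ratio was taken as log2(pAkt/Akt) from In-Cell Western readings of phospho-Akt(T308) and total Akt on an Odyssey, corrected for column-wise fixation decay. Before reading, MCF7 cells ([…], 96-well plates) transfected with 879 miRNA mimics at 10 nM final via Lipofectamine RNAiMax were, after 72 h, given 10 ng/ml heregulin-beta1 for 1 h or no stimulus, then fixed with 4% PFA. Two biological replicates were run.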

Sequence | HRG-induced Akt activation (log2)
AUCCCACCUCUGCCACCA | 1.2 ± 0.059
CAGUGGUUUUACCCUAUGGUAG | 1.91 ± 0.035
AUUCCUAGAAAUUGUUCAUA | 1.18 ± 0.4
ACCCUAUCAAUAUUGUCUCUGC | 1.33 ± 0.23
UAGCAGCGGGAACAGUUCUGCAG | 1.61 ± 0.1
UAAUACUGCCGGGUAAUGAUGGA | 1.08 ± 0.34
CAGUGCAAUAGUAUUGUCAAAGC | 1.02 ± 0.51
AGAGGUAUAGGGCAUGGGAA | 1.88 ± 0.23
CCAGUCCUGUGCCUGCCGCCU | 1.88 ± 0.41
CAGCCACAACUACCCUGCCACU | 1.94 ± 0.99
UCAAAACUGAGGGGCAUUUUCU | 1.34 ± 0.13
UCUGCUCAUACCCCAUGGUUUCU | 1.15 ± 0.24
UCAAGAGCAAUAACGAAAAAUGU | 1.91 ± 0.14
AAACAAACAUGGUGCACUUCUU | 1.48 ± 0.08
AAACCUGUGUUGUUCAAGAGUC | 0.883 ± 0.023
GAUGAUGCUGCUGAUGCUG | 1.07 ± 0.52
UGAGGUAGUAGGUUGUAUGGUU | 1.07 ± 0.07
AAAAGUAAUUGUGGUUUUUGCC | 1.07 ± 0.085
UAGUACUGUGCAUAUCAUCUAU | 1.44 ± 0.47
CUCCCACUGCUUCACUUGACUA | 1.32 ± 0.27
UAAGUGCUUCCAUGUUUCAGUGG | 0.9677 ± 0.0067
CUGGGAUCUCCGGGGUCUUGGUU | 2 ± 0.076
CACAUUACACGGUCGACCUCU | 1.173 ± 0.0052
UUCUCGAGGAAAGAAGCACUUUC | 1.61 ± 0.16
ACUUUAACAUGGAAGUGCUUUC | 1.17 ± 0.09
CUGGGAGAAGGCUGUUUACUCU | 1.04 ± 0.2
AGUUAGGAUUAGGUCGUGGAA | 1 ± 0.39

Sequence | HRG-induced Akt activation (log2)
CAAUUUAGUGUGUGUGAUAUUU | 2 ± 0.13
AUUGAUCAUCGACACUUCGAACGCAAU | 1.383 ± 0.0097
UGCAACUUACCUGAGUCAUUGA | 1.61 ± 0.13
AGGGCUUAGCUGCUUGUGAGCA | 1.75 ± 0.56
UGUGAGGUUGGCAUUGUUGUCU | 2.02 ± 0.55
GAAGUGCUUCGAUUUUGGGGUGU | 1.12 ± 0.22
CUAUACAGUCUACUGUCUUUCC | 1.85 ± 0.18
AAAAGCUGGGUUGAGAGGGCGA | 1.44 ± 0.13
UACUGCAUCAGGAACUGAUUGGA | 0.878 ± 0.64
AGCAGCAUUGUACAGGGCUAUCA | 1.35 ± 0.26
ACACAGGGCUGUUGUGAAGACU | 1.74 ± 0.1
GUUGUGUCAGUUUAUCAAAC | 1.54 ± 0.089
CCCUGUGCCCGGCCCACUUCUG | 1.19 ± 0.05
AGGGUGUUUCUCUCAUCUCU | 2.04 ± 0.21
CAUUGCACUUGUCUCGGUCUGA | 1.74 ± 0.8
ACCGUGGCUUUCGAUUGUUACU | 1.58 ± 0.11
AAUUGCACUUUAGCAAUGGUGA | 1.14 ± 0.04
UCCUGCGCGUCCCAGAUGCCC | 1.15 ± 0.34
AAACCGUUACCAUUACUGAGUU | 1.22 ± 0.2
CACUAGAUUGUGAGCUCCUGGA | 1.69 ± 0.57
UGCACCAUGGUUGUCUGAGCAUG | 1.29 ± 0.33
UGGUUGACCAUAGAACAUGCGC | 1.2 ± 0.092
CCUCAGGGCUGUAGAACAGGGCU | 1.49 ± 0.21
AGGUGGUCCGUGGCGCGUUCGC | 2.93 ± 0.32
GCUGCGCUUGGAUUUCGUCCCC | 1.62 ± 0.098
AGGACCUGCGGGACAAGAUUCUU | 1.6 ± 0.091
